Measured values from the supplement of paper PMC8882468.

system: HCI-025 (organoid from a breast cancer xenograft); test: CTG-3D luminescence at 96 h relative to day-0 seeding control (ratio to day 0); higher = more growth / less cytotoxicity; PDxO 3D drug screen (set 2), 96 h, CTG-3D normalised to day-0 seeding control.; settings: 0.00025 µM; days in culture: 224

For `Nc1cc(C(F)(F)F)c(-c2cc(N3CCOCC3)nc(N3CCOCC3)n2)cn1` [buparlisib], the “CTG-3D luminescence at 96 h” value was 2.32.

same assay, conditions: 0.005 µM; days in culture: 175

In order of rising “CTG-3D luminescence at 96 h” value:
1. CS(=O)(=O)CCNCc1ccc(-c2ccc3ncnc(Nc4ccc(OCc5cccc(F)c5)c(Cl)c4)c3c2)o1 [lapatinib]  1.45
2. Cc1c(CN2CCN(C(=O)[C@H](C)O)CC2)sc2c(N3CCOCC3)nc(-c3cnc(N)nc3)nc12 [apitolisib]  1.53
3. CC(C)n1nc(-c2ccc3oc(N)nc3c2)c2c(N)ncnc21 [sapanisertib]  1.62
4. CC(=O)c1c(C)c2cnc(Nc3ccc(N4CCNCC4)cn3)nc2n(C2CCCC2)c1=O [palbociclib]  1.75
5. C[C@@H](Nc1cc(F)cc(F)c1)c1cc(C(=O)N(C)C)cc2c(=O)cc(N3CCOCC3)oc12 [AZD-8186]  1.8
6. CCOc1ccn(-c2ccc(F)cc2)c(=O)c1C(=O)Nc1ccc(Oc2ccnc(N)c2Cl)c(F)c1 [ASLAN002]  1.91
7. Nc1cc(C(F)(F)F)c(-c2cc(N3CCOCC3)nc(N3CCOCC3)n2)cn1 [buparlisib]  1.95

same assay, conditions: 0.005 µM; days in culture: 189

In order of falling “CTG-3D luminescence at 96 h” value:
1. CC(=O)c1c(C)c2cnc(Nc3ccc(N4CCNCC4)cn3)nc2n(C2CCCC2)c1=O [palbociclib]  2.23
2. CCOc1ccn(-c2ccc(F)cc2)c(=O)c1C(=O)Nc1ccc(Oc2ccnc(N)c2Cl)c(F)c1 [ASLAN002]  1.96
3. Nc1cc(C(F)(F)F)c(-c2cc(N3CCOCC3)nc(N3CCOCC3)n2)cn1 [buparlisib]  1.96
4. C[C@@H](Nc1cc(F)cc(F)c1)c1cc(C(=O)N(C)C)cc2c(=O)cc(N3CCOCC3)oc12 [AZD-8186]  1.89
5. Cc1c(CN2CCN(C(=O)[C@H](C)O)CC2)sc2c(N3CCOCC3)nc(-c3cnc(N)nc3)nc12 [apitolisib]  1.66
6. CC(C)n1nc(-c2ccc3oc(N)nc3c2)c2c(N)ncnc21 [sapanisertib]  1.63
7. CS(=O)(=O)CCNCc1ccc(-c2ccc3ncnc(Nc4ccc(OCc5cccc(F)c5)c(Cl)c4)c3c2)o1 [lapatinib]  1.58

same assay, conditions: 0.005 µM; days in culture: 212

In order of rising “CTG-3D luminescence at 96 h” value:
1. CC(=O)c1c(C)c2cnc(Nc3ccc(N4CCNCC4)cn3)nc2n(C2CCCC2)c1=O [palbociclib]  1.94
2. Nc1cc(C(F)(F)F)c(-c2cc(N3CCOCC3)nc(N3CCOCC3)n2)cn1 [buparlisib]  2.06
3. Cc1c(CN2CCN(C(=O)[C@H](C)O)CC2)sc2c(N3CCOCC3)nc(-c3cnc(N)nc3)nc12 [apitolisib]  2.34
4. CC(C)n1nc(-c2ccc3oc(N)nc3c2)c2c(N)ncnc21 [sapanisertib]  2.69
5. C[C@@H](Nc1cc(F)cc(F)c1)c1cc(C(=O)N(C)C)cc2c(=O)cc(N3CCOCC3)oc12 [AZD-8186]  2.79
6. CCOc1ccn(-c2ccc(F)cc2)c(=O)c1C(=O)Nc1ccc(Oc2ccnc(N)c2Cl)c(F)c1 [ASLAN002]  3.86
7. CS(=O)(=O)CCNCc1ccc(-c2ccc3ncnc(Nc4ccc(OCc5cccc(F)c5)c(Cl)c4)c3c2)o1 [lapatinib]  4.13

same assay, conditions: 0.005 µM; days in culture: 224

In order of falling “CTG-3D luminescence at 96 h” value:
1. Cc1c(CN2CCN(C(=O)[C@H](C)O)CC2)sc2c(N3CCOCC3)nc(-c3cnc(N)nc3)nc12 [apitolisib]  2.09
2. CCOc1ccn(-c2ccc(F)cc2)c(=O)c1C(=O)Nc1ccc(Oc2ccnc(N)c2Cl)c(F)c1 [ASLAN002]  2.02
3. CC(C)n1nc(-c2ccc3oc(N)nc3c2)c2c(N)ncnc21 [sapanisertib]  1.91
4. CC(=O)c1c(C)c2cnc(Nc3ccc(N4CCNCC4)cn3)nc2n(C2CCCC2)c1=O [palbociclib]  1.88
5. CS(=O)(=O)CCNCc1ccc(-c2ccc3ncnc(Nc4ccc(OCc5cccc(F)c5)c(Cl)c4)c3c2)o1 [lapatinib]  1.8
6. C[C@@H](Nc1cc(F)cc(F)c1)c1cc(C(=O)N(C)C)cc2c(=O)cc(N3CCOCC3)oc12 [AZD-8186]  1.66
7. Nc1cc(C(F)(F)F)c(-c2cc(N3CCOCC3)nc(N3CCOCC3)n2)cn1 [buparlisib]  1.5

same assay, conditions: 0.1 µM; days in culture: 175

In order of falling “CTG-3D luminescence at 96 h” value:
1. CCOc1ccn(-c2ccc(F)cc2)c(=O)c1C(=O)Nc1ccc(Oc2ccnc(N)c2Cl)c(F)c1 [ASLAN002]  2.81
2. CS(=O)(=O)CCNCc1ccc(-c2ccc3ncnc(Nc4ccc(OCc5cccc(F)c5)c(Cl)c4)c3c2)o1 [lapatinib]  2.22
3. C[C@@H](Nc1cc(F)cc(F)c1)c1cc(C(=O)N(C)C)cc2c(=O)cc(N3CCOCC3)oc12 [AZD-8186]  1.98
4. CC(=O)c1c(C)c2cnc(Nc3ccc(N4CCNCC4)cn3)nc2n(C2CCCC2)c1=O [palbociclib]  1.97
5. Cc1c(CN2CCN(C(=O)[C@H](C)O)CC2)sc2c(N3CCOCC3)nc(-c3cnc(N)nc3)nc12 [apitolisib]  1.89
6. Nc1cc(C(F)(F)F)c(-c2cc(N3CCOCC3)nc(N3CCOCC3)n2)cn1 [buparlisib]  1.88
7. CC(C)n1nc(-c2ccc3oc(N)nc3c2)c2c(N)ncnc21 [sapanisertib]  0.506

same assay, conditions: 0.1 µM; days in culture: 189

In order of rising “CTG-3D luminescence at 96 h” value:
1. CC(C)n1nc(-c2ccc3oc(N)nc3c2)c2c(N)ncnc21 [sapanisertib]  0.619
2. Cc1c(CN2CCN(C(=O)[C@H](C)O)CC2)sc2c(N3CCOCC3)nc(-c3cnc(N)nc3)nc12 [apitolisib]  1.41
3. C[C@@H](Nc1cc(F)cc(F)c1)c1cc(C(=O)N(C)C)cc2c(=O)cc(N3CCOCC3)oc12 [AZD-8186]  1.5
4. Nc1cc(C(F)(F)F)c(-c2cc(N3CCOCC3)nc(N3CCOCC3)n2)cn1 [buparlisib]  1.69
5. CC(=O)c1c(C)c2cnc(Nc3ccc(N4CCNCC4)cn3)nc2n(C2CCCC2)c1=O [palbociclib]  1.9
6. CCOc1ccn(-c2ccc(F)cc2)c(=O)c1C(=O)Nc1ccc(Oc2ccnc(N)c2Cl)c(F)c1 [ASLAN002]  2.27
7. CS(=O)(=O)CCNCc1ccc(-c2ccc3ncnc(Nc4ccc(OCc5cccc(F)c5)c(Cl)c4)c3c2)o1 [lapatinib]  3.08

same assay, conditions: 0.1 µM; days in culture: 212

In order of falling “CTG-3D luminescence at 96 h” value:
1. CS(=O)(=O)CCNCc1ccc(-c2ccc3ncnc(Nc4ccc(OCc5cccc(F)c5)c(Cl)c4)c3c2)o1 [lapatinib]  3.86
2. CC(=O)c1c(C)c2cnc(Nc3ccc(N4CCNCC4)cn3)nc2n(C2CCCC2)c1=O [palbociclib]  1.29
3. C[C@@H](Nc1cc(F)cc(F)c1)c1cc(C(=O)N(C)C)cc2c(=O)cc(N3CCOCC3)oc12 [AZD-8186]  1.25
4. CCOc1ccn(-c2ccc(F)cc2)c(=O)c1C(=O)Nc1ccc(Oc2ccnc(N)c2Cl)c(F)c1 [ASLAN002]  1.18
5. Nc1cc(C(F)(F)F)c(-c2cc(N3CCOCC3)nc(N3CCOCC3)n2)cn1 [buparlisib]  1.13
6. Cc1c(CN2CCN(C(=O)[C@H](C)O)CC2)sc2c(N3CCOCC3)nc(-c3cnc(N)nc3)nc12 [apitolisib]  0.777
7. CC(C)n1nc(-c2ccc3oc(N)nc3c2)c2c(N)ncnc21 [sapanisertib]  0.0755

same assay, conditions: 0.1 µM; days in culture: 224

In order of falling “CTG-3D luminescence at 96 h” value:
1. C[C@@H](Nc1cc(F)cc(F)c1)c1cc(C(=O)N(C)C)cc2c(=O)cc(N3CCOCC3)oc12 [AZD-8186]  2
2. CS(=O)(=O)CCNCc1ccc(-c2ccc3ncnc(Nc4ccc(OCc5cccc(F)c5)c(Cl)c4)c3c2)o1 [lapatinib]  1.82
3. Cc1c(CN2CCN(C(=O)[C@H](C)O)CC2)sc2c(N3CCOCC3)nc(-c3cnc(N)nc3)nc12 [apitolisib]  1.35
4. CC(=O)c1c(C)c2cnc(Nc3ccc(N4CCNCC4)cn3)nc2n(C2CCCC2)c1=O [palbociclib]  1.26
5. CC(C)n1nc(-c2ccc3oc(N)nc3c2)c2c(N)ncnc21 [sapanisertib]  0.411
